In ChEMBL document CHEMBL1145498, “A systematic interaction map of validated kinase inhibitors with Ser/Thr kinases” (Proc Natl Acad Sci U S A, 2007) one finds ΔTm data, which are given here for nine compounds.

Test [1] addresses Calcium/calmodulin-dependent protein kinase type II subunit gamma (Homo sapiens) (UniProt Q13555).
The target in test [2] is Serine/threonine-protein kinase pim-2 (Homo sapiens, UniProt Q9P1W9).
Test [3] deals with Serine/threonine-protein kinase 38 (Homo sapiens) (UniProt Q15208).
The target in test [4] is Dual specificity protein kinase CLK3 (Homo sapiens) (UniProt P49761).
Test [5] addresses Casein kinase I isoform gamma-1 (Homo sapiens) (UniProt Q9HCP0).
Test [6] has as its target Serine/threonine-protein kinase PLK1 (Homo sapiens) (UniProt P53350).
The target of test [7] is Cyclin-dependent kinase-like 1 (Homo sapiens) (UniProt Q00532).
The target in test [8] is Serine/threonine-protein kinase pim-1 (Homo sapiens) (UniProt P11309).
Test [9] concerns the target Cyclin-dependent kinase 16 (Homo sapiens) (UniProt Q00536).
For test [10], the target named is Tyrosine-protein kinase JAK1 (Homo sapiens) (UniProt P23458).
The target of test [11] is Death-associated protein kinase 3 (Homo sapiens) (UniProt O43293).
The target in test [12] is Serine/threonine-protein kinase VRK2 (Homo sapiens) (UniProt Q86Y07).
Test [13] addresses Serine/threonine-protein kinase pim-3 (Homo sapiens) (UniProt Q86V86).
The target of test [14] is Mitogen-activated protein kinase 6 (Homo sapiens) (UniProt Q16659).
The target of test [15] is Mitogen-activated protein kinase 3 (Homo sapiens, UniProt P27361).
Test [16] deals with Calcium/calmodulin-dependent protein kinase type II subunit alpha (Homo sapiens) (UniProt Q9UQM7).
Test [17] concerns the target T1, Calcium/calmodulin-dependent protein kinase type IV (Homo sapiens) (UniProt Q16566).
T1 sequence (whole entry): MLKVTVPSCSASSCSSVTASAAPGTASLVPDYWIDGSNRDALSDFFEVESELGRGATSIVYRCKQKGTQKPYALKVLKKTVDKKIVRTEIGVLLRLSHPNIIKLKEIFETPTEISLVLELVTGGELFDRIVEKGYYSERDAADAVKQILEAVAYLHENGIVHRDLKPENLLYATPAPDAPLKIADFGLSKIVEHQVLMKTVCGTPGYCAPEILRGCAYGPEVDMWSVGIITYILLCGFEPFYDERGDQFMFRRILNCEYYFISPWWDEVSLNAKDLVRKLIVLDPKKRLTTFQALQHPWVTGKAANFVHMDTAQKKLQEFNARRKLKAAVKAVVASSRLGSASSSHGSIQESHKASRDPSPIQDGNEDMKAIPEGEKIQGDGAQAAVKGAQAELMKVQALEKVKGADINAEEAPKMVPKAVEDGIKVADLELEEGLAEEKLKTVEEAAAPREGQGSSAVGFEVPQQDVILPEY

The target in test [18] is cAMP-dependent protein kinase catalytic subunit alpha (Homo sapiens) (UniProt P17612).
For test [19], the target named is STE20-like serine/threonine-protein kinase (Homo sapiens) (UniProt Q9H2G2).
The target of test [20] is Mitogen-activated protein kinase 11 (Homo sapiens, UniProt Q15759).
For test [21], the target named is Serine/threonine-protein kinase PAK 6 (Homo sapiens) (UniProt Q9NQU5).

Each structure is given as a SMILES string.

Sequence of Mitogen-activated protein kinase 11 (Q15759 whole entry): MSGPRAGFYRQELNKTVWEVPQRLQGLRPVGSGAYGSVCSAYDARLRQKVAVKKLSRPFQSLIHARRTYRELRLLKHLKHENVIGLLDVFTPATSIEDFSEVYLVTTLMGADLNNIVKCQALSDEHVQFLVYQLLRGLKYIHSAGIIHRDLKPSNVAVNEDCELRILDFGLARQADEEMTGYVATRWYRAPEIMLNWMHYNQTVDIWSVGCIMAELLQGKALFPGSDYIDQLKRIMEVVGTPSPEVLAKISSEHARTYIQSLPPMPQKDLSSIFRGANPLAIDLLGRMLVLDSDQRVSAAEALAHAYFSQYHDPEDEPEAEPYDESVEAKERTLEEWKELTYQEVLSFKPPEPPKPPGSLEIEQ
Sequence of Cyclin-dependent kinase 16 (Homo sapiens) (Q00536 whole entry): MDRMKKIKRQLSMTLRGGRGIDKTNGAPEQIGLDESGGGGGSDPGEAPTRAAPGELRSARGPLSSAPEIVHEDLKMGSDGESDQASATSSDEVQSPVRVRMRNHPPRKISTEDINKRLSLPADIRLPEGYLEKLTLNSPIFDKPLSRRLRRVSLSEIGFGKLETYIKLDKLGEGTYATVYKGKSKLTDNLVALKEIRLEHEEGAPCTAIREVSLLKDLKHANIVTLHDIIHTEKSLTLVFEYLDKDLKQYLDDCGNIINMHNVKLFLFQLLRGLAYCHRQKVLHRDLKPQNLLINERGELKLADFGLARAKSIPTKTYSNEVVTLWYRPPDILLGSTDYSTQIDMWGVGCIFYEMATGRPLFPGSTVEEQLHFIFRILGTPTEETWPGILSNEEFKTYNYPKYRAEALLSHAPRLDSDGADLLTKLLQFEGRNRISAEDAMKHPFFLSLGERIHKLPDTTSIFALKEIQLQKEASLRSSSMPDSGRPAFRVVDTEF
Sequence of Mitogen-activated protein kinase 3 (P27361 whole entry): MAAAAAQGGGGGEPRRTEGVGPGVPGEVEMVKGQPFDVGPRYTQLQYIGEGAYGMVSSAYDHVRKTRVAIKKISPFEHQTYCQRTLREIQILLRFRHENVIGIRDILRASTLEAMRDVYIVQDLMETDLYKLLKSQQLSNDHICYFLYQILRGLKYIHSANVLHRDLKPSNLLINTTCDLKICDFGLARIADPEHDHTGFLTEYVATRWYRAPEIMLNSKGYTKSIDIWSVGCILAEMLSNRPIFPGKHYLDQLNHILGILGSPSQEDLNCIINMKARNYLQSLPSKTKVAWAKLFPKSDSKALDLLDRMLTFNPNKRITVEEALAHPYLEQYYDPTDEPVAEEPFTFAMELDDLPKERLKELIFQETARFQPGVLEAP
Sequence of Tyrosine-protein kinase JAK1 (Homo sapiens) (P23458 whole entry): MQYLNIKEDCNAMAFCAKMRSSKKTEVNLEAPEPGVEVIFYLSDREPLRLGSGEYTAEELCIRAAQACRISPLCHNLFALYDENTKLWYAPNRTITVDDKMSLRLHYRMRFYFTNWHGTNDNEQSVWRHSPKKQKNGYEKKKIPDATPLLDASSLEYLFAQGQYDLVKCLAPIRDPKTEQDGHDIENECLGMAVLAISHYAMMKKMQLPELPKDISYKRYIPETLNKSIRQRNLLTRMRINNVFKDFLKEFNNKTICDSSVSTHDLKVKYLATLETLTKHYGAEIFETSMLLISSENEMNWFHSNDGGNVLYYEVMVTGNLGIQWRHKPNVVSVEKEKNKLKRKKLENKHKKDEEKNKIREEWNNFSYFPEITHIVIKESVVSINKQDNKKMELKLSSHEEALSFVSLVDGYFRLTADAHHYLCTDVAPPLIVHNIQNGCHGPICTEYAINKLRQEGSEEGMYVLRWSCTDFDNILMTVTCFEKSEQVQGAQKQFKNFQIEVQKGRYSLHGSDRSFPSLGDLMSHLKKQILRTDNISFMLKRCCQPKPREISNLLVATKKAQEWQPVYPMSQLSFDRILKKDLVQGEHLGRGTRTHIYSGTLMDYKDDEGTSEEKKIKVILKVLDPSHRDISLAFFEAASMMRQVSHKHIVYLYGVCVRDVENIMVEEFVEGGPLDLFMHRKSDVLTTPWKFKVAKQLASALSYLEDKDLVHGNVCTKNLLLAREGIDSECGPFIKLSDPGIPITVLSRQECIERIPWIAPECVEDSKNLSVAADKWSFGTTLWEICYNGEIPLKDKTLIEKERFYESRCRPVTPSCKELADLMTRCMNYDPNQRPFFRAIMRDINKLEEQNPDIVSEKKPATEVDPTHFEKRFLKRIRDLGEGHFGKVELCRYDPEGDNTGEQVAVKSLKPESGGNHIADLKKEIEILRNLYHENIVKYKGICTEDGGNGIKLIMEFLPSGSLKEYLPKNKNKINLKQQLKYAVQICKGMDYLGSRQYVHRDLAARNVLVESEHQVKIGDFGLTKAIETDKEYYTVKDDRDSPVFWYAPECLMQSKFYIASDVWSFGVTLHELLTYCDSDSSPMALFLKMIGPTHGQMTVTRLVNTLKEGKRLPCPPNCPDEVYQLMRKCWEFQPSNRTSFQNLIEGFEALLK
Sequence of Death-associated protein kinase 3 (Homo sapiens) (O43293 whole entry, looked up): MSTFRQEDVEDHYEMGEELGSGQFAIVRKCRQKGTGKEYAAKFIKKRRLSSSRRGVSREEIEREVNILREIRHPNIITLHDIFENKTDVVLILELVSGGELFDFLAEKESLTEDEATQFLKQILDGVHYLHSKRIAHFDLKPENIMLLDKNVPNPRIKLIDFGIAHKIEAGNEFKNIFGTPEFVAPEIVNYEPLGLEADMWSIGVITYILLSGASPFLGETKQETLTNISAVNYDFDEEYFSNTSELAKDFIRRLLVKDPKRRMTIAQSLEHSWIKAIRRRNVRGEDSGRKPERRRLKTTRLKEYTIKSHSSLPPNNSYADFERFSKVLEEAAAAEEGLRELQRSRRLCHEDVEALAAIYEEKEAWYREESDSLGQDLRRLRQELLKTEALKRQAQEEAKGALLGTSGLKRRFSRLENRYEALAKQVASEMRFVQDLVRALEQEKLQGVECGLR
Sequence of Serine/threonine-protein kinase VRK2 (Homo sapiens) (Q86Y07 whole entry): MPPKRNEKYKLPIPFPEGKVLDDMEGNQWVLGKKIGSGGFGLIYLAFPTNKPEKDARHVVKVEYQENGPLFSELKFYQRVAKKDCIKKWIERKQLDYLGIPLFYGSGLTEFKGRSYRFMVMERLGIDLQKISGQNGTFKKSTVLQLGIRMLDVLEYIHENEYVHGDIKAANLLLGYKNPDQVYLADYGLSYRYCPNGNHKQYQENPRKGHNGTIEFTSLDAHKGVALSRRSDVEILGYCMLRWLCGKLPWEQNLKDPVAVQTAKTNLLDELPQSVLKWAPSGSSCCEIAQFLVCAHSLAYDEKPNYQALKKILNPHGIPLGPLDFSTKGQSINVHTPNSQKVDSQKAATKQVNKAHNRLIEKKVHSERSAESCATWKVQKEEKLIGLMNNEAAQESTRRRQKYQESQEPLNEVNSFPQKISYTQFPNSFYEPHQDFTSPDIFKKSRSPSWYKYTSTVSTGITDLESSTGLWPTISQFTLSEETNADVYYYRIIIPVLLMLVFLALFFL
Sequence of Calcium/calmodulin-dependent protein kinase type II subunit alpha (Homo sapiens) (Q9UQM7 whole entry): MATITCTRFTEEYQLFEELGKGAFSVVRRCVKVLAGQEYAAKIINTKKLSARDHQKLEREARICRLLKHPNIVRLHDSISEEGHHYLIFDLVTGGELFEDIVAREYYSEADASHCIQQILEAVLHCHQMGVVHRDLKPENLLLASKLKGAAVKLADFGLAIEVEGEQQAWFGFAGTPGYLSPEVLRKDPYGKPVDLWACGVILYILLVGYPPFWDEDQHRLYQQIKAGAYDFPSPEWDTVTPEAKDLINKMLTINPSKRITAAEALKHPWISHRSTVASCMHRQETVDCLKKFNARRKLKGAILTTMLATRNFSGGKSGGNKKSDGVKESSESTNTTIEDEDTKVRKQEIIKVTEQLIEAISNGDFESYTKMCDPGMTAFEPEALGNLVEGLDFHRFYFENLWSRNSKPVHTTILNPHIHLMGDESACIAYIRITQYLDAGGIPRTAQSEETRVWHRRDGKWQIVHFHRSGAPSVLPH
Sequence of Serine/threonine-protein kinase PLK1 (Homo sapiens) (P53350 whole entry): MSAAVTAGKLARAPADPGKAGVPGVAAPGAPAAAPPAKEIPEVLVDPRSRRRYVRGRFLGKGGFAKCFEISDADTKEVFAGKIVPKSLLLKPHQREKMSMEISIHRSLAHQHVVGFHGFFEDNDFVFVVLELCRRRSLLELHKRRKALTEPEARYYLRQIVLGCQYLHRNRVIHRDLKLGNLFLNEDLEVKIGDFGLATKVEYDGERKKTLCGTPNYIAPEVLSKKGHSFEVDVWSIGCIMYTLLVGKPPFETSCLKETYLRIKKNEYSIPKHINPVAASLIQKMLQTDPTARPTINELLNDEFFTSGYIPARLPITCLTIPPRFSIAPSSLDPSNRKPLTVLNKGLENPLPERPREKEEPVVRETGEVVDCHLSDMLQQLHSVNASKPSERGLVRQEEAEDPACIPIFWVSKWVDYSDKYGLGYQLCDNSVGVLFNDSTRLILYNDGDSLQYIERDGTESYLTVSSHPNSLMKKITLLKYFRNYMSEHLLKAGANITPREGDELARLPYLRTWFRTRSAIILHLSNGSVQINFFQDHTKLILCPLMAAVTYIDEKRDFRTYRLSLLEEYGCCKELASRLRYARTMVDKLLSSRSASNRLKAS

`N#C/C(=C\c1ccc(O)c(O)c1)C(=O)Nc1ccccc1`: the ΔTm – broadly, the change in melting temperature against a reference sample – in [1] is -0.2 °C; in test [2] it was 1.5 °C; in test [3], 0 °C; in [4], 0.2 °C; in test [5], 1 °C; in test [6], 0.7 °C. In addition, the thermal shift (ΔTm) is -0.1 °C in [7]; 1.6 °C in test [8]; -0.5 °C in test [9]; 0.8 °C in [10]; 1.4 °C in [11]; 0.3 °C in test [12]. The shift in melting temperature (ΔTm) in [13] amounted to 2.8 °C; in test [14] it was 0.5 °C; in [15] it was 0.5 °C; in test [16], 0.3 °C; in [17] it was 0.6 °C; in test [18], 0.4 °C. Further, the results for the ΔTm in test [19], in test [20] and in [21] were 1.8 °C, 0.2 °C and 0 °C, respectively.

In the case of `Cn1cc(C2=C(c3cn(CCCN)c4ccccc34)C(=O)NC2=O)c2ccccc21`, the ΔTm was found to be 3.7 °C in test [1]; 5.6 °C in test [2]; 0.2 °C in test [3]; 3.5 °C in [4]; 0.5 °C in test [5]; 0.2 °C in test [6]. The shift in melting temperature (ΔTm) in [7] is 2.7 °C; in test [8], 8.3 °C; in test [9], 4.7 °C; in [10], -0.5 °C; in test [11] it was 2.5 °C; in test [12], 0.6 °C. The ΔTm in test [13] was 6.7 °C; in test [14] it was 0.3 °C; in test [15] it was -0.3 °C; in test [16], 2.6 °C; in test [17], 1.7 °C; in test [18], 2.6 °C. Besides, the thermal shift (ΔTm) in test [19] turned out to be 7.6 °C; in test [20] it was 0.5 °C; in [21], 4.5 °C.

Turning to `O=c1cc(-c2ccc(O)cc2)oc2cc(O)cc(O)c12`, the thermal shift (ΔTm) in [1] is -11.5 °C; in test [2] it was 3.8 °C; in test [3], 1.1 °C; in test [4], 3.1 °C; in [5], 1.4 °C; in test [6], 2 °C. Further, the shift in melting temperature (ΔTm) came out at 1.4 °C in test [7]; 3.7 °C in test [8]; 1.2 °C in [9]; 4.6 °C in [10]; 3.5 °C in [11]; 0.6 °C in test [12]. The thermal shift (ΔTm) stood at 4.6 °C in test [13]; 0.5 °C in test [14]; 0.5 °C in test [15]; 0.5 °C in test [16]; 2.1 °C in [17]; 1.7 °C in test [18]. Besides, the figures for the ΔTm in test [19], in test [20] and in [21] were 2.4 °C, 1.7 °C and 0.3 °C, respectively.

Take `N#C/C(=C1/Nc2ccccc2S1)c1ccnc(NCCc2cccnc2)n1`: the thermal shift (ΔTm) in [1] turned out to be 1 °C; in [2], 7.4 °C; in [3], 2.2 °C; in test [4], 4.9 °C; in [5], 3.7 °C; in [6], 2.1 °C. For the same compound, the ΔTm amounted to 3.1 °C in test [7]; 10 °C in [8]; 5.8 °C in test [9]; 7.5 °C in test [10]; 1.6 °C in test [11]; 1.8 °C in test [12]. Moreover, the shift in melting temperature (ΔTm) in test [13] worked out at 10.9 °C; in test [14], 2 °C; in [15], 1.7 °C; in [16], 2.6 °C; in test [17], 1.4 °C; in test [18], 1.6 °C. Also, the ΔTm in [19] amounted to 1.8 °C; in test [20], 2.4 °C; in test [21] it was 1.6 °C.

Turning to `CC(C)N(CCO)c1nc(Nc2cccc(Cl)c2)c2ncn(C(C)C)c2n1`, the ΔTm in test [1] turned out to be 0.6 °C; in [2] it was 0.2 °C; in test [3], 3.3 °C; in test [4], 4.2 °C; in test [5], 6.1 °C; in test [6] it was 3.3 °C. Further, the shift in melting temperature (ΔTm) in [7] was 0.3 °C; in [8], -1.1 °C; in test [9], 0.8 °C; in [10], 2.2 °C; in test [11] it was 0.4 °C; in [12], 2.7 °C. Moreover, the thermal shift (ΔTm) in test [13] stood at 1.4 °C; in test [14], 0.1 °C; in test [15], 1.7 °C; in [16], 0.5 °C; in test [17] it was 2.2 °C; in test [18] it was 1.6 °C. Also, the thermal shift (ΔTm) was 2.9 °C in [19], -0.4 °C in test [20] and 5.3 °C in [21].

With `N#C/C(=C\c1ccc(O)c(O)c1)C(=O)NCc1ccccc1`, the thermal shift (ΔTm) in [1] is -0.2 °C; in test [2], 1.9 °C; in test [3], 0.1 °C; in [4], 0.5 °C; in test [5] it was 0.4 °C; in test [6], 0.7 °C. Moreover, the ΔTm was -0.3 °C in [7]; 2.1 °C in test [8]; -0.6 °C in [9]; 1.3 °C in test [10]; 1.8 °C in test [11]; 0.2 °C in test [12]. Moreover, the shift in melting temperature (ΔTm) in test [13] is 3.1 °C; in [14] it was 0.4 °C; in [15], 0.8 °C; in [16] it was 0.4 °C; in test [17] it was 0.6 °C; in [18], 0.6 °C. The shift in melting temperature (ΔTm) in test [19] is 2.9 °C; in [20], 0.4 °C; in test [21] it was -0.4 °C.

With `COc1cc2ncnc(Nc3cccc(Br)c3)c2cc1OC`, the ΔTm in test [1] is 0.1 °C; in test [2], 0.9 °C; in test [3] it was 0.4 °C; in test [4], 0.2 °C; in test [5], 0.8 °C; in test [6] it was -0.3 °C. Also, the ΔTm in test [7] was 0.1 °C; in test [8], 0.7 °C; in test [9], -0.9 °C; in test [10], 2.7 °C; in [11] it was 1.8 °C; in [12] it was 0.4 °C. The ΔTm in [13] was 1.6 °C; in test [14], -0.1 °C; in test [15], 0.6 °C; in test [16], 0.5 °C; in test [17], 0.1 °C; in test [18], 0.4 °C. The thermal shift (ΔTm) in test [19] worked out at 6.9 °C; in test [20], 1.8 °C; in [21], 0.1 °C.

`O=C(O)c1cc(NCc2cc(O)ccc2O)ccc1O`: the ΔTm was 0 °C in test [1]; 0.7 °C in test [2]; -0.4 °C in test [3]; 0.2 °C in [4]; 0.6 °C in test [5]; 0.3 °C in [6]. Also, the shift in melting temperature (ΔTm) in test [7] was -0.4 °C; in test [8], 0 °C; in test [9], 0.1 °C; in test [10], -0.2 °C; in [11], -0.4 °C; in test [12] it was -0.2 °C. In addition, the ΔTm in test [13] is -0.2 °C; in [14], -0.4 °C; in test [15], -0.1 °C; in [16], 0.4 °C; in test [17] it was 0.1 °C; in [18], -0.2 °C. The thermal shift (ΔTm) in test [19] is -0.5 °C; in [20] it was 0.2 °C; in [21], -0.1 °C.

For `O=c1c(-c2ccc(O)cc2)coc2cc(O)cc(O)c12`, the ΔTm in test [1] was found to be 0 °C; in [2], 3.1 °C; in [3] it was 0.6 °C; in test [4], 1 °C; in test [5], 0.8 °C; in [6] it was 1.4 °C. In addition, the ΔTm in test [7] is -0.1 °C; in test [8], 3.3 °C; in test [9], -0.6 °C; in test [10], -0.2 °C; in test [11] it was 0.5 °C; in [12], 0.1 °C. In addition, the shift in melting temperature (ΔTm) was 3 °C in [13]; 1.7 °C in [14]; 0.6 °C in test [15]; 0.8 °C in test [16]; -0.8 °C in test [17]; 2.1 °C in test [18]. Moreover, the ΔTm in test [19] is 2.4 °C; in test [20], 0 °C; in test [21] it was -0.9 °C.
